ChEMBL document CHEMBL1201862, “PubChem BioAssay data set” (2004)
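Growth conditions: 96-well plates. Treatment: test compound, 48 hours, 5 concentrations. Analysis: linear interpolation between bracketing concentrations; unreached endpoints set to highest concentration. GI50 is the concentration that inhibits growth by half.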 Calls of active or inactive are those of the source. No stated cut-off is given here; in the data, active = GI50 up to about 1.1 µM and inactive = higher.

Key:
Test in all cases: NCI-60 cell line screen, 48 h
[1] = system: HCT-15
[2] = system: OVCAR-3
[3] = system: SF-295
[4] = system: TK-10
[5] = system: SW-620
[6] = system: HOP-92
[7] = system: RPMI-8226
[8] = system: IGROV-1
[9] = system: UO-31
[10] = system: ACHN
[11] = system: NCI-H23
[12] = system: SK-MEL-28
[13] = system: CCRF-CEM
[14] = system: DU-145
[15] = system: NCI/ADR-RES
[16] = system: SN12C
[17] = system: SNB-19
[18] = system: SK-MEL-5
[19] = system: HL-60

With `COc1ccc(/C=C2\NC(=S)N(CN3CCOCC3)C2=O)cc1` the GI50 [1] was over 100 µM, the GI50 [2] was > 100 µM (inactive) and the GI50 [3] was > 100 µM (inactive). The GI50 [4] was > 100 µM (inactive), the GI50 [5] was > 100 µM (inactive) and the GI50 [6] was > 100 µM (inactive). The GI50 [7] was > 100 µM (inactive), the GI50 [8] was > 100 µM (inactive) and the GI50 [9] was > 100 µM (inactive). For the same compound, the GI50 [10] was > 100 µM (inactive), the GI50 [11] was > 100 µM (inactive) and the GI50 [12] was > 100 µM (inactive). For the same compound, the GI50 [13] was > 100 µM (inactive), the GI50 [14] was > 100 µM (inactive) and the GI50 [15] was > 100 µM (inactive). The GI50 [16] was > 100 µM (inactive), the GI50 [17] was > 100 µM (inactive) and the GI50 [18] was > 100 µM (inactive).
In the case of `CN1CC[C@]2(C)c3ccc(O)cc3CC3CCCC1C32C` (some centres undefined), the GI50 [1] was over 100 µM, the GI50 [2] was > 100 µM (inactive) and the GI50 [3] was > 100 µM (inactive). For the same compound, the GI50 [4] was > 100 µM (inactive), the GI50 [6] was > 100 µM (inactive) and the GI50 [7] was > 100 µM (inactive). For the same compound, the GI50 [8] was > 100 µM (inactive), the GI50 [9] was 92.3 µM (inactive) and the GI50 [10] was > 100 µM (inactive). For the same compound, the GI50 [11] was > 100 µM (inactive), the GI50 [12] was > 100 µM (inactive) and the GI50 [13] was > 100 µM (inactive). For the same compound, the GI50 [19] was > 100 µM (inactive), the GI50 [16] was > 100 µM (inactive) and the GI50 [17] was > 100 µM (inactive). For the same compound, the GI50 [18] was > 100 µM (inactive).
For `CCN(CC)C(=O)c1c(Cl)cc(N(CC)CC)oc1=O`, the GI50 [1] was over 100 µM, the GI50 [2] was > 100 µM (inactive) and the GI50 [3] was > 100 µM (inactive). The GI50 [4] was > 100 µM (inactive), the GI50 [5] was > 100 µM (inactive) and the GI50 [6] was > 100 µM (inactive). The GI50 [7] was > 100 µM (inactive), the GI50 [8] was > 100 µM (inactive) and the GI50 [9] was > 100 µM (inactive). For the same compound, the GI50 [10] was > 100 µM (inactive), the GI50 [11] was > 100 µM (inactive) and the GI50 [12] was > 100 µM (inactive). The GI50 [13] was > 100 µM (inactive), the GI50 [19] was > 100 µM (inactive) and the GI50 [16] was > 100 µM (inactive). For the same compound, the GI50 [17] was > 100 µM (inactive).
For `Cn1/c(=N\c2ccccc2[N+](=O)[O-])sc2ccccc21`, the GI50 [1] was 2.61 µM, the GI50 [3] was 42.6 µM (inactive) and the GI50 [4] was 8.93 µM (inactive). For the same compound, the GI50 [5] was > 100 µM (inactive), the GI50 [6] was 14.7 µM (inactive) and the GI50 [7] was > 100 µM (inactive). For the same compound, the GI50 [8] was 5.4 µM (inactive), the GI50 [9] was > 100 µM (inactive) and the GI50 [10] was 61.5 µM (inactive). The GI50 [11] was 26 µM (inactive), the GI50 [12] was 89.7 µM (inactive) and the GI50 [13] was > 100 µM (inactive). The GI50 [14] was > 100 µM (inactive), the GI50 [15] was 95.9 µM (inactive) and the GI50 [19] was > 100 µM (inactive). For the same compound, the GI50 [16] was 84.1 µM (inactive), the GI50 [17] was 36.1 µM (inactive) and the GI50 [18] was 19.2 µM (inactive).
With `COC1(OC)CC2C(=O)N(Cc3ccccc3)C1C=C2S(=O)(=O)c1ccccc1` (centres undefined) the GI50 [2] was 14.8 µM (inactive), the GI50 [3] was 28.5 µM (inactive) and the GI50 [4] was 25.1 µM (inactive). The GI50 [5] was 15.2 µM (inactive), the GI50 [6] was 24.1 µM (inactive) and the GI50 [7] was 21 µM (inactive). For the same compound, the GI50 [8] was 32.9 µM (inactive), the GI50 [9] was 25 µM (inactive) and the GI50 [10] was 20.8 µM (inactive). For the same compound, the GI50 [11] was 18 µM (inactive), the GI50 [12] was 17.5 µM (inactive) and the GI50 [13] was 14.9 µM (inactive). For the same compound, the GI50 [19] was 11.7 µM (inactive), the GI50 [16] was 16.4 µM (inactive) and the GI50 [17] was 24 µM (inactive). The GI50 [18] was 13.8 µM (inactive).
For `CCSC(SCC)c1cc2c(cc1Br)OCO2`, the GI50 [1] was 9.64 µM, the GI50 [2] was 22.9 µM (inactive) and the GI50 [3] was 24.5 µM (inactive). For the same compound, the GI50 [4] was 44.7 µM (inactive), the GI50 [5] was 10.6 µM (inactive) and the GI50 [6] was 17.8 µM (inactive). For the same compound, the GI50 [7] was 19.4 µM (inactive), the GI50 [8] was 55.8 µM (inactive) and the GI50 [9] was 20.8 µM (inactive). The GI50 [10] was 40.3 µM (inactive), the GI50 [11] was 26.7 µM (inactive) and the GI50 [12] was 33.2 µM (inactive). For the same compound, the GI50 [13] was 16.6 µM (inactive), the GI50 [19] was 10.1 µM (inactive) and the GI50 [16] was 30.5 µM (inactive). The GI50 [17] was 58.9 µM (inactive) and the GI50 [18] was 17.5 µM (inactive).
In the case of `CCOc1ccccc1NC(=O)C(=O)CC(=O)c1sc(Nc2nnc(-c3ccc(Cl)c(Cl)c3)o2)nc1C`, the GI50 [1] was over 100 µM, the GI50 [2] was 77.8 µM (inactive) and the GI50 [3] was > 100 µM (inactive). The GI50 [4] was > 100 µM (inactive), the GI50 [5] was 33.5 µM (inactive) and the GI50 [6] was > 100 µM (inactive). For the same compound, the GI50 [7] was 64.3 µM (inactive), the GI50 [8] was > 100 µM (inactive) and the GI50 [9] was > 100 µM (inactive). For the same compound, the GI50 [10] was > 100 µM (inactive), the GI50 [11] was > 100 µM (inactive) and the GI50 [12] was > 100 µM (inactive). The GI50 [13] was 40.8 µM (inactive), the GI50 [19] was > 100 µM (inactive) and the GI50 [16] was > 100 µM (inactive). For the same compound, the GI50 [17] was > 100 µM (inactive) and the GI50 [18] was > 100 µM (inactive).
With `N#C/C(=C\c1ccccc1F)C(=O)c1ccccc1` the GI50 [1] was over 100 µM, the GI50 [2] was > 100 µM (inactive) and the GI50 [3] was > 100 µM (inactive). For the same compound, the GI50 [4] was > 100 µM (inactive), the GI50 [5] was > 100 µM (inactive) and the GI50 [6] was > 100 µM (inactive). For the same compound, the GI50 [7] was > 100 µM (inactive), the GI50 [8] was > 100 µM (inactive) and the GI50 [9] was > 100 µM (inactive). For the same compound, the GI50 [10] was > 100 µM (inactive), the GI50 [11] was > 100 µM (inactive) and the GI50 [12] was > 100 µM (inactive). For the same compound, the GI50 [13] was > 100 µM (inactive), the GI50 [19] was 66.7 µM (inactive) and the GI50 [16] was > 100 µM (inactive). The GI50 [17] was > 100 µM (inactive) and the GI50 [18] was > 100 µM (inactive).
For `CN1CCN(Cn2nc(COc3ccccc3Cl)n(/N=C/c3ccc(-c4ccc(Cl)cc4Cl)o3)c2=S)CC1`, the GI50 [1] was 24.2 µM, the GI50 [2] was 21.7 µM (inactive) and the GI50 [3] was 27.4 µM (inactive). For the same compound, the GI50 [4] was 23.9 µM (inactive), the GI50 [5] was 16.1 µM (inactive) and the GI50 [6] was 14.3 µM (inactive). For the same compound, the GI50 [7] was 29.2 µM (inactive), the GI50 [8] was 28 µM (inactive) and the GI50 [9] was 33.2 µM (inactive). For the same compound, the GI50 [11] was 17.9 µM (inactive), the GI50 [12] was 60.5 µM (inactive) and the GI50 [13] was 25.6 µM (inactive). The GI50 [14] was 20 µM (inactive), the GI50 [15] was 21.7 µM (inactive) and the GI50 [19] was 24.8 µM (inactive). The GI50 [18] was 24.8 µM (inactive).
In the case of `CCCCCCCCCCCC(=O)OCCOCCOCCOCCOCCOCc1ccc(OC)cc1`, the GI50 [1] was over 100 µM, the GI50 [2] was > 100 µM (inactive) and the GI50 [3] was > 100 µM (inactive). The GI50 [4] was > 100 µM (inactive), the GI50 [5] was > 100 µM (inactive) and the GI50 [6] was > 100 µM (inactive). The GI50 [7] was > 100 µM (inactive), the GI50 [8] was 88.5 µM (inactive) and the GI50 [9] was > 100 µM (inactive). For the same compound, the GI50 [10] was > 100 µM (inactive), the GI50 [11] was > 100 µM (inactive) and the GI50 [12] was > 100 µM (inactive). The GI50 [13] was > 100 µM (inactive), the GI50 [19] was 14.8 µM (inactive) and the GI50 [16] was > 100 µM (inactive). The GI50 [17] was > 100 µM (inactive) and the GI50 [18] was > 100 µM (inactive).
`CCCCCCC(=O)C/C(CCC(=O)N(Cc1ccccc1)Cc1ccccc1)=N\NC(N)=O` was tested, and the GI50 [1] was over 100 µM, the GI50 [2] was > 100 µM (inactive) and the GI50 [3] was > 100 µM (inactive). For the same compound, the GI50 [4] was > 100 µM (inactive), the GI50 [5] was > 100 µM (inactive) and the GI50 [6] was > 100 µM (inactive). For the same compound, the GI50 [7] was > 100 µM (inactive), the GI50 [8] was > 100 µM (inactive) and the GI50 [9] was > 100 µM (inactive). The GI50 [10] was > 100 µM (inactive), the GI50 [11] was > 100 µM (inactive) and the GI50 [12] was > 100 µM (inactive). For the same compound, the GI50 [13] was > 100 µM (inactive), the GI50 [19] was > 100 µM (inactive) and the GI50 [16] was > 100 µM (inactive). The GI50 [17] was > 100 µM (inactive) and the GI50 [18] was > 100 µM (inactive).
`COc1ccc(NC(=O)/C(O)=C/C(=O)c2ccccc2)cc1` was tested, and the GI50 [1] was over 10 µM, the GI50 [3] was > 10 µM (inactive) and the GI50 [4] was > 10 µM (inactive). The GI50 [5] was > 10 µM (inactive), the GI50 [6] was > 10 µM (inactive) and the GI50 [7] was > 10 µM (inactive). For the same compound, the GI50 [8] was 7.38 µM (inactive), the GI50 [11] was > 10 µM (inactive) and the GI50 [12] was > 10 µM (inactive). For the same compound, the GI50 [13] was 2.53 µM (inactive), the GI50 [14] was > 10 µM (inactive) and the GI50 [19] was > 10 µM (inactive). The GI50 [16] was > 10 µM (inactive) and the GI50 [18] was > 10 µM (inactive).
